Holding throughout (assay type): cell-based
The test system of test [1] is A-549 (monolayer culture of a human lung carcinoma). Put plainly: in vitro cytotoxic assay, A-549 cells. The settings on record: A549, 72 h, three days of incubation, Crystal Violet staining, approximate IC50. As to the method:
(§1) Cells were maintained in logarithmic phase of growth in Eagle's Minimum Essential Medium, with Earle's Balanced Salts, with 2.0 mM L-glutamine, with non-essential amino acids, without sodium bicarbonate (EMEM/neaa); supplemented with 10% Fetal Calf Serum (FCS), 10^−2 M sodium bicarbonate and 0,1 g/l penicillin-G+streptomycin sulfate.
(§2) A screening procedure has been carried out to determine and compare the antitumor activity of these compounds, using an adapted form of the method described by Bergeron et al. (Reference 3). The antitumor cells employed were P-388 (suspension culture of a lymphoid neoplasm from DBA/2 mouse), A-549 (monolayer culture of a human lung carcinoma), HT-29 (monolayer culture of a human colon carcinoma) and MEL-28 (monolayer culture of a human melanoma).
(§3) A-549, HT-29 and MEL-28 cells were seeded into 16 mm wells at 2×10^4 cells per well in 1 ml aliquots of MEM 10FCS containing the indicated concentration of drug. A separate set of cultures without drug was seeded as control growth to ensure that cells remained in exponential phase of growth. All determinations were carried out in duplicate. After three days of incubation at 37° C., 10% CO2 in a 98% humid atmosphere, the wells were stained with 0.1% Crystal Violet. An approximately IC50 was determined by comparing the growth in wells with drug to the growth in wells control.

Test [2] concerns MEL-28 (monolayer culture of a human melanoma). The experiment in a line: in vitro cytotoxic assay, MEL-28 cells. The settings on record: SK-MEL-28, 72 h, three days of incubation, Crystal Violet staining, approximate IC50. The procedure:
as §1, §2, §3

In test [3] the test system is HT-29 (monolayer culture of a human colon carcinoma). The experiment in a line: in vitro cytotoxic assay, HT-29 cells. The settings on record: 72 h, three days of incubation, Crystal Violet staining, approximate IC50. As to the method: as §1, §2, §3
Test [4] deals with P-388 (suspension culture of a lymphoid neoplasm from DBA/2 mouse). The experiment in a line: in vitro cytotoxic assay, P-388 cells. The settings on record: P388, 72 h, three days of incubation, approximate IC50 by growth vs control wells. The procedure: as §1, §2
P-388 cells were seeded into 16 mm wells at 1×10^4 cells per well in 1 ml aliquots of MEM 5FCS containing the indicated concentration of drug. A separate set of cultures without drug was seeded as control growth to ensure that cells remained in exponential phase of growth. All determinations were carried out in duplicate. After three days of incubation at 37° C., 10% CO2 in a 98% humid atmosphere, an approximately IC50 was determined by comparing the growth in wells with drug to the growth in wells control.

Results on two compounds are retold here after patent US6420357B1, “Cytotoxic alkaloid derivatives including Asmarine A and B isolated from a sponge” (Instituto Biomar, S.A., priority 1997, dated 2002).

The structures appear in SMILES notation.

For orientation: IC50 means the point on the concentration scale where inhibition reaches its midpoint. Read a low IC50 as greater potency. On to `C=C1CCC[C@@H]2[C@@](C)(CC[C@@]3(C)CCn4cnc5ncnc(c54)N3O)[C@H](C)CC[C@@]12C` [Asmarine A], for which the IC50 in test [1], in test [2], in test [3] and in test [4] was 1180 nM throughout.

With `C=C1CCC[C@H]2[C@@](C)(CC[C@@]3(C)CCn4cnc5ncnc(c54)N3O)[C@H](C)CC[C@@]12C` [Asmarine B], the IC50 in test [1] was 120 nM; in test [2], 240 nM; in test [3], 120 nM; in test [4], 240 nM.
